Counter-ions that a name gives are not always drawn.
Experiments:
Assay type in all cases: cell-based
[1] = test system: Escherichia coli uptake by RAW 264.7 macrophages; assay: CFU-less assay (CLA) screen of 2,400 approved drugs for modulators of bacterial uptake
bacterial uptake = assay: CFU plating to confirm uptake enhancement
Procedure: CFU plating was performed to confirm the enhancement.

Salmonella species = assay: Attenuation of infection by Salmonella
Pseudomonas species = assay: Attenuation of infection by Pseudomonas
Klebsiella species = assay: Attenuation of infection by Klebsiella
Acinetobacter species = assay: Attenuation of infection by Acinetobacter
[2] = test system: intracellular and extracellular bacterial strains in RAW 264.7 macrophages; assay: Uptake and intracellular survival of bacterial strains in RAW 264.7 macrophages (FIG. 21)
From the text: This confirms the results of the screen and expands potential uses. Quinacrine was previously known as an antiparasitic, an anti-inflammatory agent, intrapleural sclerosing agent, a pneumothorax prophylaxis, Creutzfeldt-Jakob disease (CJI)) therapy, and as an anticancer agent (FIG. 21).

E. coli = assay: Axenic growth of bacteria (CFU-less assay / optical density); details: varying amounts of compound, FIG. 19
From the text: In some embodiments, methods for measuring bacterial growth rate in axenic culture are described. The methods comprise: • (a) expressing in the bacteria a fluorescent protein; • (b) growing the bacteria in axenic culture; and • (c) measuring fluorescence in the culture at regular intervals.
The CFU-less assay can reliably detect compound cytotoxicity in axenic medium. The compound(s) of interest were combined with either the host cell or the pathogen in an axenic medium to analyze toxicity of the compound(s) on the host cell or pathogen. The graphs below show an example of how the compounds from the screen affect axenic growth of E. coli. The effects of the compounds on axenic growth of E. coli were minimal.

Q: `CO[C@H]1C[C@H](O[C@H]2[C@H](C)O[C@@H](O[C@@H]3/C(C)=C/C[C@@H]4C[C@@H](C[C@]5(C=C[C@H](C)[C@@H](C6CCCCC6)O5)O4)OC(=O)[C@@H]4C=C(C)[C@@H](O)[C@H]5OC/C(=C\C=C\[C@@H]3C)[C@]54O)C[C@@H]2OC)O[C@@H](C)[C@@H]1O` [Doramectin] was tested. Which “bacterial uptake in the presence of the compound (FIG. 2)” value [1] did it give?
A: increase in bacterial uptake

Q: And the “confirmation of uptake enhancement by CFU plating” value (bacterial uptake)?
A: enhancement

Q: For `CCN(CC)CCCC(C)Nc1c2ccc(Cl)cc2nc2ccc(OC)cc12` (stereo not shown) [Quinacrine hydrochloride], which “intracellular load of bacteria” value ([1]; screen of 2,400 compounds) is on record?
A: decreases the intracellular load of bacteria

Q: What about the “infection by Salmonella species” value (Salmonella species) of the same compound?
A: attenuated infection

Q: What about the “infection by Pseudomonas species” value (Pseudomonas species) of the same compound?
A: attenuated infection

Q: What about the “infection by Klebsiella species” value (Klebsiella species) of the same compound?
A: attenuated infection

Q: And the “infection by Acinetobacter species” value (Acinetobacter species)?
A: attenuated infection

Q: And the “intracellular survival of both intracellular and extracellular bacterial strains” value [2]?
A: inhibitory effect

Q: And the “uptake of both intracellular and extracellular bacterial strains (dT)” value ([2]; FIG. 21)?
A: inhibitory effect (increased dT)

Q: With Polymyxin B sulfate as the compound, how does the “gram-negative bacterial growth in axenic culture” value (E. coli) read?
A: inhibition of gram-negative bacterial growth
